Data from ChEMBL document CHEMBL3885861, “Open TG-GATES”.

Species on record: Rattus norvegicus
Assay: Open TG-GATES - Regimen: Single
Assay type: toxicity, organism-based, Sprague-Dawley
Design: regimen Single, gender Male, age 6 weeks
Conditions: in vivo, po, 0 mg/kg, route gavage, dose level Control; for APTT / Bas / Eos / Fbg / Hb / Ht / Lym / MCH / MCHC / MCV / Mono / Neu / PT / Plat / RBC / Ret / WBC: tissue Blood; for KIDNEY_L / KIDNEY_R / KIDNEY_TOTAL: tissue Kidney; for LIVER: tissue Liver; for A/G / ALP / ALT / AST / BUN / CRE / Ca / Cl / DBIL / GLC / IP / K / LDH / Na / PL / RALB / TBIL / TC / TG / TP / gamma-GTP: tissue Plasma

## CCOC(=O)C(C)(C)Oc1ccc(Cl)cc1 [CLOFIBRATE]
9 h
  TERMINAL_BW: 221.7 g
  APTT: 18.1 s
  Bas: 0%
  Eos: 1%
  Fbg: 234.4 mg/dL
  Hb: 13.4 g/dL
  Ht: 38.5%
  Lym: 73.2%
  MCH: 20.8 pg
  MCHC: 34.9%
  MCV: 59.7 fL
  Mono: 2.6%
  Neu: 22.8%
  PT: 13 s
  Plat: 137.3 x10_4/uL
  RBC: 644.4 x10_4/ul
  Ret: 7.1%
  WBC: 78.9 x10_2/uL
  KIDNEY_L: 0.9 g
  KIDNEY_R: 1 g
  KIDNEY_TOTAL: 1.9 g
  LIVER: 9 g
  A/G: 1.6
  ALP: 1006.6 IU/L
  ALT: 27 IU/L
  AST: 63.6 IU/L
  BUN: 11.2 mg/dL
  CRE: 0.4 mg/dL
  Ca: 10.2 mg/dL
  Cl: 103 meq/L
  DBIL: 0.082 mg/dL
  GLC: 204.6 mg/dL
  IP: 10.2 mg/dL
  K: 3.7 meq/L
  LDH: 223.8 IU/L
  Na: 141.2 meq/L
  PL: 136.8 mg/dL
  RALB: 3.3 g/dL
  TBIL: 0.1 mg/dL
  TC: 64.2 mg/dL
  TG: 68.2 mg/dL
  TP: 5.5 g/dL
  gamma-GTP: 0.8 IU/L
24 h
  TERMINAL_BW: 236.7 g
  APTT: 18.6 s
  Bas: 0%
  Eos: 1%
  Fbg: 230.2 mg/dL
  Hb: 13.7 g/dL
  Ht: 39.5%
  Lym: 80.8%
  MCH: 20.7 pg
  MCHC: 34.5%
  MCV: 60 fL
  Mono: 2.4%
  Neu: 15.8%
  PT: 12.5 s
  Plat: 127.3 x10_4/uL
  RBC: 659.8 x10_4/ul
  Ret: 6.3%
  WBC: 75.3 x10_2/uL
  KIDNEY_L: 1 g
  KIDNEY_R: 1 g
  KIDNEY_TOTAL: 2 g
  LIVER: 10.9 g
  A/G: 1.5
  ALP: 1006.2 IU/L
  ALT: 34 IU/L
  AST: 66.4 IU/L
  BUN: 14.4 mg/dL
  CRE: 0.4 mg/dL
  Ca: 10.7 mg/dL
  Cl: 102.2 meq/L
  DBIL: 0.094 mg/dL
  GLC: 191.2 mg/dL
  IP: 7 mg/dL
  K: 3.9 meq/L
  LDH: 198.2 IU/L
  Na: 140 meq/L
  PL: 147.8 mg/dL
  RALB: 3.3 g/dL
  TBIL: 0.2 mg/dL
  TC: 68.4 mg/dL
  TG: 125.4 mg/dL
  TP: 5.5 g/dL
  gamma-GTP: 1 IU/L
